From patent US11779014B2, “Adjuvants” (SYNGENTA PARTICIPATIONS AG, priority 2017, dated 2023) come the findings set out here.

Bounds are passed on as bounds.

One data set has as its system Avena fatua (AVEFA). In words: Glasshouse adjuvancy test for pinoxaden on AVEFA. The class given is in vivo. As to conditions: pinoxaden 15 g ai/ha, total surfactant 0.2% w/v, 21 days. How it is done:
The efficacy of 1:1 blends of oleyl 20EO with oleyl 20EO with either n-hexanoyl, n-octanoyl or 2-ethyl hexanoyl ester caps as adjuvants for the herbicide pinoxaden was tested in a glasshouse against two weed species, sown into standard soil in pots and cultivated under controlled conditions in a glasshouse (20/16° C. day/night; 16 hours light; 65% humidity). Pinoxaden was added to the spray tank as a standard EC (emulsifiable concentrate) formulation. The plants were sprayed with pinoxaden at rates of 7.5 or 15 grams of pesticide per hectare using a laboratory track sprayer which delivered the aqueous spray composition at a rate of 200 litres per hectare, using a flat fan nozzle (Teejet 11002VS) at 2 bar. The spray solutions also contained the oleyl 20EO alone or in the 1:1 blends with the capped surfactants. The adjuvants were added to the spray solution at a total surfactant rate of 0.2% w/v. All spray solutions also contained 10% w/w of iso-propanol. The weed species and their BBCH growth stage at spraying were Avena fatua (AVEFA; growth stage 13) and Setaria viridis (SETVI; growth stage 13). Each spray test was replicated three times. The test plants were then grown in a glasshouse under controlled conditions (20/16° C. day/night; 16 hours light; 65% humidity) and watered twice a day. The efficacy of the herbicide was assessed visually and expressed as a percentage of the leaf area killed. Samples were assessed at a time period of 21 days following application.
Dodecyl 23EO and hexadecyl 20EO were capped with an n-hexyl ether cap. The efficacy of 1:1 blends of these with their uncapped counterparts were tested as adjuvants for the herbicide pinoxaden was tested in a glasshouse against two weed species, sown into standard soil in pots and cultivated under controlled conditions in a glasshouse (20/16° C. day/night; 16 hours light; 65% humidity). Pinoxaden was added to the spray tank as a standard EC (emulsifiable concentrate) formulation. The plants were sprayed with pinoxaden at a.i. rates of 7.5 or 15 grams per hectare using a laboratory track sprayer which delivered the aqueous spray composition at a rate of 200 litres per hectare, using a flat fan nozzle (Teejet 11002VS) at 2 bar. The spray solutions tested included the capped and uncapped alone or in the 1:1 blends with the capped surfactants. The adjuvants were added to the spray solution at a total surfactant rate of 0.2% w/v. All spray solutions also contained 10% w/w of iso-propanol. The weed species and their BBCH growth stage at spraying was Avena fatua (AVEFA; growth stage 12). Each spray test was replicated three times. The test plants were then grown in a glasshouse under controlled conditions (20/16° C. day/night; 16 hours light; 65% humidity) and watered twice a day. The efficacy of the herbicide was assessed visually and expressed as a percentage of the leaf area killed. Samples were assessed at a time period of 21 days following application.
Oleyl 20EO was capped with -butyl, n-pentyl and n-benzyl caps. The efficacy of 1:1 blends of these with their uncapped counterparts were tested as adjuvants for the herbicide pinoxaden was tested in a glasshouse against two weed species, sown into standard soil in pots and cultivated under controlled conditions in a glasshouse (20/16° C. day/night; 16 hours light; 65% humidity). Pinoxaden was added to the spray tank as a standard EC (emulsifiable concentrate) formulation. The plants were sprayed with pinoxaden at a.i. rates of 7.5 or 15 grams per hectare using a laboratory track sprayer which delivered the aqueous spray composition at a rate of 200 litres per hectare, using a flat fan nozzle (Teejet 11002VS) at 2 bar. The spray solutions tested included the capped and uncapped alone or in the 1:1 blends with the capped surfactants. The adjuvants were added to the spray solution at a total surfactant rate of 0.2% w/v. All spray solutions also contained 10% w/w of iso-propanol.

The nature of data set [1]: De-gelling temperature of aqueous surfactant blends by low shear rheology (Bohlin Gemini rheometer, storage modulus vs temperature). The class given is physicochemical. How it is done:
The temperatures at which blends of capped and uncapped surfactants de-gel were determined by standard low shear rheology with a Bohlin™ Gemini rheometer. The storage modulus (G′) at 1 Hz was determined at a strain of 0.001-0.002 in a standard C14 cup and bob geometry over a temperature range of 5-70° C., the exact range depending on the de-gelling point of the sample. Plots of storage modulus versus temperature were constructed and the de-gelling temperature was taken to be the point at which the modulus begins to fall rapidly from its high value in the gelled state (typically ca. 10^5 Pa) down to the final value in the de-gelled state (less than 10 Pa). Blends of surfactants were prepared at from 25 to 40% w/w total surfactant concentration in water. Samples were left in an oven at 55° C. for several days to ensure that the mixtures were homogeneous. Samples were placed in the C14 cup and the samples were de-gelled by raising the temperature in the rheometer, the bob was then inserted and the sample was then cooled at 1° C./min, whilst the storage modulus was regularly recorded during the cooling. Once the final temperature had been reached (i.e. when the sample had gelled), the temperature was then increased again and the modulus again recorded. The de-gelling temperature was determined from the increasing temperature cycle.
Degelling temperatures—the measurements relied on the same method as for ‘Example 1’ but just at 30% w/w total surfactant concentration.
De-gelling temperatures were measured using the same method as in Example 1.
(§1) This example provides de-gelling, cloud point and adjuvancy data for dodecyl 23 ethoxylate with n-hexyl cap and hexadecyl 20 ethoxylate with n-hexyl cap Cloud points were measured as described in example 1 for 1% aqueous solutions of the capped and uncapped surfactants both individually and as blends (see Table 30). Degelling temperatures were also measured as outlined in example 1 for 25, 30, 35 and 40% aqueous solutions of the capped and uncapped surfactants both individually and as blends (see Table 31).
(§2) This example provides de-gelling, cloud point and adjuvancy data for oleyl 20 ethoxylate with n-butyl, n-pentyl or benzyl ether caps end capped oleyl 20 ethoxylate. Cloud points were measured as described in example 1 for 1% aqueous solutions of the capped and uncapped surfactants both individually and as blends. Degelling temperatures were also measured as outlined in example 1 for 25, 30, 35 and 40% aqueous solutions o of the capped and uncapped surfactants both individually and as blends.

Data set [2] in a line: Cloud point measurement (absorbance at 500 nm as a function of temperature). The class given is physicochemical. How it is done:
Consistent with the standard method for measuring the cloud point of surfactants, the cloud point of each of the above blends was measured at a total concentration of 1% w/w in water using a Perkin Elmer spectrophotometer fitted with a PTP6 temperature controller. The absorbance of the solution at 500 nm wavelength was determined as a function of temperature. The cloud point was recorded as the onset of a rapid increase in absorbance as the solution began to cloud.
Cloud point—the measurements relied on the same method as for ‘Example 1’
Cloud points—were measured using the same method as in Example 1.
as §1, §2

Data set [3] concerns Chenopodium album (CHEAL). The data set can be described thus: Glasshouse adjuvancy test for nicosulfuron on CHEAL. The class given is in vivo. How it is done:
(§3) The biological efficacies of blends of an oleyl 20 ethoxylate uncapped surfactant with an oleyl 20 ethoxylate surfactant with an n-hexyl ether cap as adjuvants for the herbicide nicosulfuron were tested in a glasshouse against three weed species sown into standard soil in pots and cultivated under controlled conditions in a glasshouse (24/18° C. day/night; 16 hours light; 65% humidity). Nicosulfuron was added to the spray tank as a standard WG (water dispersible granule) formulation. The plants were sprayed with nicosulfuron at rates of 15 or 60 grams of pesticide per hectare using a laboratory track sprayer which delivered the aqueous spray composition at a rate of 200 litres per hectare, using a flat fan nozzle (Teejet 11002VS) at 2 bar. The adjuvants were added to the spray solution at a total rate of 0.1 or 0.2% w/v in all cases and at extra lower rates for the oleyl 20EO alone and its 1:1 blend with the oleyl 20EO n-hexyl ether to show the dose response to these adjuvants. All spray solutions also contained 10% w/w of iso-propanol. The weed species and their BBCH growth stage at spraying were Chenopodium album (CHEAL; growth stage 15), Digitaria sanguinalis (DIGSA; growth stage 14), and Commelina benghalensis (COMBE; growth stage 14). Each spray test was replicated three times. The test plants were then grown in a glasshouse under controlled conditions (24/18° C. day/night; 16 hours light; 65% humidity) and watered twice a day. The efficacy of the herbicide was assessed visually and expressed as a percentage of the leaf area killed. Samples were assessed at a time period of 21 days following application. The following tables (3-8) show the effect of blends of the two surfactants at a total concentration of 0.2 and 0.1%. In each case the blends were 1:0, 3:1, 1:1, 1:3 and 0:1 w/w of oleyl 20EO:oleyl 20 EO n-hexyl ether.
The biological efficacies of blends of oleyl 20 ethoxylate and oleyl 20EO ethoxylate with a benzoate cap as adjuvants for the herbicide nicosulfuron were tested in a glasshouse using the same method as for ‘Example 1’ but against just two weed species and with just 0.2% w/v total adjuvant concentration. The weed species and their BBCH growth stage at spraying HI were Chenopodium album (CHEAL; growth stage 13-15) and Digitaria sanguinalis (DIGSA; growth stage 14-22).
The biological efficacies of 1:1 blends of an oleyl 20 ethoxylate uncapped surfactant with oleyl 20E ethoxylate surfactants with hexanoyl, n-octanoyl or 2-ethyl hexanoyl ester caps as adjuvants for the herbicide nicosulfuron were tested in a glasshouse using the same method as for ‘Example 1’ but against just one weed species and at 0.2% w/v tital adjuvant concentration. The weed species and its BBCH growth stage at spraying was Chenopodium album (CHEAL; growth stage 15).

Data set [4] concerns Digitaria sanguinalis (DIGSA). In words: Glasshouse adjuvancy test for nicosulfuron on DIGSA. Type of data set: in vivo. How it is done: as §3, with “ether. The biological efficacies of blends of oleyl 20 ethoxylate and oleyl 20EO ethoxylate with a benzoate cap as adjuvants for the herbicide nicosulfuron were tested in a glasshouse using the same method as for ‘Example 1’ but against just two weed species and with just 0.2% w/v total adjuvant concentration. The weed species and their BBCH growth stage at spraying HI were Chenopodium album (CHEAL; growth stage 13-15) and Digitaria sanguinalis (DIGSA; growth stage 14-22).” for “ether.”

Where [5] appears, read: dose response, nicosulfuron 15 g ai/ha, adjuvant 0%.
Where [6] appears, read: dose response, nicosulfuron 60 g ai/ha, adjuvant 0%.

In the data set on Avena fatua (AVEFA) (Example 9, growth stage 12), Oleyl 20EO n-butyl ether registered a Mean control of 96.3%.
Consider `CCCCCCCC/C=C\CCCCCCCCOCCOCCOCCOCCOCCOCCOCCOCCOCCOCCOCCOCCOCCOCCOCCOCCOCCOCCOCCOCCOC(=O)CCCCC` [Oleyl 20EO n-hexanoyl ester, oleyl 20EO n-hexanoyl ester], for which the Degelling temperature in data set [1] (total surfactant concentration 40% w/w, Table 18) is 13.6 °C. In data set [2] (1%, Table 20), the Cloud point was found to be 28.0 °C.
For `CCCCCCCC/C=C\CCCCCCCCOCCOCCOCCOCCOCCOCCOCCOCCOCCOCCOCCOCCOCCOCCOCCOCCOCCOCCOCCOCCOC(=O)CCCCCCC` [Oleyl 20EO n-octanoyl ester, oleyl 20EO n-octanoyl ester], the De-gelling temperature in data set [1] (40% w/w, Table 19) turned out to be 16.5 °C.
In the case of Dodecyl 23EO n-hexyl ether, the De-gelling temperature in data set [1] (total surfactant concentration 25% w/w, Table 31) is below 5 °C; in data set [1] (total surfactant concentration 30% w/w, Table 31), below 5 °C; in data set [1] (total surfactant concentration 35% w/w, Table 31), below 5 °C; in data set [1] (total surfactant concentration 40% w/w, Table 31) it was 7.4 °C. Moreover, the Cloud point in data set [2] (1% aqueous solutions, Table 30) is 67.2 °C. In addition, in the data set with Avena fatua (AVEFA) (Example 7, growth stage 12), the Mean control was found to be 86%.
`CCCCCCCC/C=C\CCCCCCCCOCCOCCOCCOCCOCCOCCOCCOCCOCCOCCOCCOCCOCCOCCOCCOCCOCCOCCOCCOCCOC(=O)c1ccccc1` [Oleyl 20EO benzoate, oleyl 20 ethoxylate benzoate] gave a De-gelling temperature in data set [1] (30% w/w total surfactant concentration, Table 15) below 3.8 °C. In addition, in data set [2] (1%, Table 15), the Cloud point was 27.3 °C. In addition, the Mean control in data set [3] (nicosulfuron 15 g ai/ha, 0.2% w/v total adjuvant, Example 3, growth stage 13-15) is 75.0%; in data set [3] (nicosulfuron 60 g ai/ha, 0.2% w/v total adjuvant, Example 3, growth stage 13-15), 81.7%; in data set [4] (nicosulfuron 15 g ai/ha, 0.2% w/v total adjuvant, Example 3, growth stage 14-22), 96.7%; in data set [4] (nicosulfuron 60 g ai/ha, 0.2% w/v total adjuvant, Example 3, growth stage 14-22), 99.3%.
On to `COc1cc(OC)nc(NC(=O)NS(=O)(=O)c2ncccc2C(=O)N(C)C)n1` [nicosulfuron], for which the Mean control amounted to 4.0% in data set [3] (setting [5]), 8.3% in data set [3] (setting [6]), 4.0% in data set [4] (setting [5]) and 33.3% in data set [4] (setting [6]).
